Bounds are passed on as bounds.

The values that follow come from US20230312522A1, “CYP46A1 INHIBITORS AND METHODS OF USE THEREOF” (Sage Therapeutics, Inc., priority 2020, published 2023).

Sequence of CYP46A1 (Q9Y6A2 whole entry, species assumed): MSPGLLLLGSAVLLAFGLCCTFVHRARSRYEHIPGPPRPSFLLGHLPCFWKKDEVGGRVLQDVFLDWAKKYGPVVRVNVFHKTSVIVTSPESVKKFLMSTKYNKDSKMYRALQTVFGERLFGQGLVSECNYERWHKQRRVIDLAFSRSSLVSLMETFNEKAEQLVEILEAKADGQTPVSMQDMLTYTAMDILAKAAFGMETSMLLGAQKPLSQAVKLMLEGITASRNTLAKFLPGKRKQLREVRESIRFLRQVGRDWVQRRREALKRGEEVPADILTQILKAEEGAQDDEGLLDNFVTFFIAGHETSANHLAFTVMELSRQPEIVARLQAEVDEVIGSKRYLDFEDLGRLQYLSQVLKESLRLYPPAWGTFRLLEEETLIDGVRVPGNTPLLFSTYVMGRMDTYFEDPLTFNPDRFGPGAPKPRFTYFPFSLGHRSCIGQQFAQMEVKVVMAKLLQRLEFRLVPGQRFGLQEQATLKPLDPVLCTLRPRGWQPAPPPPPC

The test has as its target CYP46A1 (Homo sapiens (Human), UniProt Q9Y6A2). The test can be described thus: CYP46A1 enzyme assay (testosterone substrate, HPLC-MS). The format is biochemical. The settings on record: CYP46A1 5 μM, Testosterone 10 mM, NADPH-generating system, 37° C., 15 minutes. The method, then:
Briefly, in a 384-well plate format, 10 μL per well of an enzyme-substrate mixture of CYP46A1 (5 μM final concentration) and Testosterone ([…] final concentration) were dispensed to wells containing test compound. For CYP46A1 titration, 5 μL per well of serially diluted CYP46A1 (concentrations including 10 μM, 5 μM, and 2.5 μM) and Testosterone (concentration of […]) were dispensed. For Testosterone titration, 5 μL per well of serially diluted Testosterone (concentrations including 10 μM, 5 μM, and 2.5 μM) and CYP46A1 (concentration of 5 μM) were dispensed. The plates were centrifuged at 1000 rpm for 30 seconds, and then sealed and incubated at 37° C. for 30 minutes. The plate was removed from the incubator, and then 10 μL per well of NADPH-generating system were dispensed to initiate the reaction. The plates were incubated at 37° C. for 15 minutes, added with 80 μL per well of 100% methanol consisting 1 ng/ml diclofenac as internal standard, and then transferred for HPLC-MS.
In Table 2, A indicates a CYP46A1 IC50<0.1 μM, B indicates a CYP46A1 IC50 (μM) of 0.1 μM to <1.0 μM, and C indicates a CYP46A1 IC50 (μM) of ≥1.0 μM
On to `O=C(c1cccnc1-c1ccncn1)N1CCC(F)(Cc2ccc(F)cc2)CC1` [Compound 1, (4-fluoro-4-(4-fluorobenzyl)piperidin-1-yl)(2-(pyrimidin-4-yl)pyridin-3-yl)methanone], for which the IC50 (as a rule, the concentration that gives 50% inhibition) is under 0.1 µM.

`O=C(c1cccnc1-c1ccncn1)N1CCC(F)(CC2CCOCC2)CC1` [Compound 2, (4-fluoro-4-((tetrahydro-2H-pyran-4-yl)methyl)piperidin-1-yl)(2-(pyrimidin-4-yl)pyridin-3-yl)methanone]: the IC50 is at least 1 µM.

`O=C(c1cccnc1-c1ccncc1)N1CCC(F)(CC2CCOCC2)CC1` [Compound 3] yielded an IC50 of at least 1 µM.

Turning to `O=C(c1cccnc1-c1ccncn1)N1CCC(F)(Cc2ccc(C(F)(F)F)cc2)CC1` [Compound 4, (4-fluoro-4-(4-(trifluoromethyl)benzyl)piperidin-1-yl)(2-(pyrimidin-4-yl)pyridin-3-yl)methanone], the IC50 was under 0.1 µM.

`O=C(c1cccnc1-c1ccncn1)N1CCC(F)(Cc2ccccn2)CC1` [Compound 5, (4-fluoro-4-(pyridin-2-ylmethyl)piperidin-1-yl)(2-(pyrimidin-4-yl)pyridin-3-yl)methanone] registered a half-inhibitory concentration (IC50) of under 0.1 µM.

`N#Cc1ccc(CC2(F)CCN(C(=O)c3cccnc3-c3ccncn3)CC2)cc1` [Compound 6, 4-((4-fluoro-1-(2-(pyrimidin-4-yl)nicotinoyl)piperidin-4-yl)methyl)benzonitrile] had an IC50 of under 0.1 µM.

For the molecule `O=C(c1cccnc1-c1ccncn1)N1CCC(F)(Cc2ccc(C3CC3)cn2)CC1` [Compound 7, (4-((5-cyclopropylpyridin-2-yl)methyl)-4-fluoropiperidin-1-yl)(2-(pyrimidin-4-yl)pyridin-3-yl)methanone], the IC50 was under 0.1 µM.

Consider `N#Cc1ccc(CC2(F)CCN(C(=O)c3cccnc3-c3ccncn3)CC2)c(F)c1` [Compound 9, 3-fluoro-4-((4-fluoro-1-(2-(pyrimidin-4-yl)nicotinoyl)piperidin-4-yl)methyl)benzonitrile], for which the IC50 was under 0.1 µM.

For `O=C(c1cccnc1-c1ccncn1)N1CCC(F)(Cc2ccc(F)cn2)CC1` [Compound 10, (4-fluoro-4-((5-fluoropyridin-2-yl)methyl)piperidin-1-yl)(2-(pyrimidin-4-yl)pyridin-3-yl)methanone], the half-inhibitory concentration (IC50) was in the range of 0.1 to 1 µM.

Regarding `N#Cc1cc(F)c(CC2(F)CCN(C(=O)c3cccnc3-c3ccncn3)CC2)c(F)c1` [Compound 11, 3,5-difluoro-4-((4-fluoro-1-(2-(pyrimidin-4-yl)nicotinoyl)piperidin-4-yl)methyl)benzonitrile], the IC50 was under 0.1 µM.

`O=C(c1cccnc1-c1ccncn1)N1CCC(F)(C(=O)c2ccc(C(F)(F)F)cc2)CC1` [Compound 12, (4-fluoro-1-(2-(pyrimidin-4-yl)nicotinoyl)piperidin-4-yl)(4-(trifluoromethyl)phenyl)methanone] displayed an IC50 of 0.1 to 1 µM.

In turn, `N#Cc1ccc([C@H](O)C2(F)CCN(C(=O)c3cccnc3-c3ccncn3)CC2)c(F)c1` [Compound 15] returned an IC50 of under 0.1 µM.

`N#Cc1ccc([C@@H](O)C2(F)CCN(C(=O)c3cccnc3-c3ccncn3)CC2)c(F)c1` [Compound 16]: the IC50 was 0.1 to 1 µM.

Regarding `N#Cc1ccc(C(=O)C2(F)CCN(C(=O)c3cccnc3-c3ccncn3)CC2)c(F)c1` [Compound 17, 3-fluoro-4-(4-fluoro-1-(2-(pyrimidin-4-yl)nicotinoyl)piperidine-4-carbonyl)benzonitrile], the IC50 was 0.1 to 1 µM.

In the case of `N#Cc1ccc(CC2(F)CCN(C(=O)c3cccnc3-c3ccncn3)CC2)nc1` [Compound 21, 6-((4-fluoro-1-(2-(pyrimidin-4-yl)nicotinoyl)piperidin-4-yl)methyl)nicotinonitrile], the IC50 lay in the range of 0.1 to 1 µM.

The molecule `O=C(c1cccnc1-c1ccncn1)N1CCC(F)(Cc2cc(C(F)(F)F)ccn2)CC1` [Compound 25, (4-fluoro-4-((4-(trifluoromethyl)pyridin-2-yl)methyl)piperidin-1-yl)(2-(pyrimidin-4-yl)pyridin-3-yl)methanone] displayed an IC50 of 0.1 to 1 µM.

Molecule `O=C(c1cccnc1-c1ccncn1)N1CCC(F)(Cc2ccc(OC(F)(F)F)cn2)CC1` [Compound 27, (4-fluoro-4-((5-(trifluoromethoxy)pyridin-2-yl)methyl)piperidin-1-yl)(2-(pyrimidin-4-yl)pyridin-3-yl)methanone] yielded an IC50 of 0.1 to 1 µM.

`O=C(c1cccnc1-c1ccncn1)N1CCC(F)(Cc2ncc(Cl)cc2F)CC1` [Compound 30, (4-((5-chloro-3-fluoropyridin-2-yl)methyl)-4-fluoropiperidin-1-yl)(2-(pyrimidin-4-yl)pyridin-3-yl)methanone]: the IC50 lay within 0.1 to 1 µM.

Molecule `O=C(c1cccnc1-c1ccncn1)N1CCC(F)(Cc2ccc(C(F)(F)F)nn2)CC1` [Compound 36, (4-fluoro-4-((6-(trifluoromethyl)pyridazin-3-yl)methyl)piperidin-1-yl)(2-(pyrimidin-4-yl)pyridin-3-yl)methanone] came in with a half-maximal inhibitory concentration (IC50) of 0.1 to 1 µM.

As to `O=C(c1cccnc1-c1ccncc1)N1CCC(F)(Cc2ccc(C(F)(F)F)nn2)CC1` [Compound 37, [2,4′-bipyridin]-3-yl(4-fluoro-4-((6-(trifluoromethyl)pyridazin-3-yl)methyl)piperidin-1-yl)methanone], the half-maximal inhibitory concentration (IC50) fell in the range of 0.1 to 1 µM.

With `O=C(c1cccnc1-c1ccncn1)N1CCC(F)(Cc2cnc(C(F)(F)F)cn2)CC1` [Compound 40, (4-fluoro-4-((5-(trifluoromethyl)pyrazin-2-yl)methyl)piperidin-1-yl)(2-(pyrimidin-4-yl)pyridin-3-yl)methanone], the IC50 is 0.1 to 1 µM.

`O=C(c1cccnc1-c1ccncn1)N1CCC(F)(Cc2cnc(C(F)(F)F)nc2)CC1` [Compound 41, (4-fluoro-4-((2-(trifluoromethyl)pyrimidin-5-yl)methyl)piperidin-1-yl)(2-(pyrimidin-4-yl)pyridin-3-yl)methanone] registered an IC50 of 0.1 to 1 µM.

For `Cc1ccc(CC2(F)CCN(C(=O)c3cccnc3-c3ccncn3)CC2)nc1` [Compound 42, (4-fluoro-4-((5-methylpyridin-2-yl)methyl)piperidin-1-yl)(2-(pyrimidin-4-yl)pyridin-3-yl)methanone], the IC50 lay in the range of 0.1 to 1 µM.

As for `O=C(c1cccnc1-c1ccncn1)N1CCC(F)(Cc2cnccn2)CC1` [Compound 44, (4-fluoro-4-(pyrazin-2-ylmethyl)piperidin-1-yl)(2-(pyrimidin-4-yl)pyridin-3-yl)methanone], the half-inhibitory concentration (IC50) fell in the range of 0.1 to 1 µM.

The molecule `O=C(c1cccnc1-c1ccncn1)N1CCC(F)(Cc2cccnn2)CC1` [Compound 48, (4-fluoro-4-(pyridazin-3-ylmethyl)piperidin-1-yl)(2-(pyrimidin-4-yl)pyridin-3-yl)methanone] yielded an IC50 of 0.1 to 1 µM.

The molecule `O=C(c1cccnc1-c1ccncc1)N1CCC(F)(Cc2cccnn2)CC1` [Compound 49, [2,4′-bipyridin]-3-yl(4-fluoro-4-(pyridazin-3-ylmethyl)piperidin-1-yl)methanone] registered a 50% inhibitory concentration (IC50) of 0.1 to 1 µM.

For the molecule `Cc1cnc(CC2(F)CCN(C(=O)c3cccnc3-c3ccncn3)CC2)cn1` [Compound 50, (4-fluoro-4-((5-methylpyrazin-2-yl)methyl)piperidin-1-yl)(2-(pyrimidin-4-yl)pyridin-3-yl)methanone], the IC50 lay within 0.1 to 1 µM.

In turn, `Cc1ccc(CC2(F)CCN(C(=O)c3cccnc3-c3ccncn3)CC2)cn1` [Compound 53] displayed an IC50 of 0.1 to 1 µM.
